One block for each compound: values may come before it. The source made the active and inactive calls.
What was measured:
[1] = biological target: Luciferin 4-monooxygenase (Photinus pyralis, UniProt P08659); test: firefly luciferase enzyme inhibitors, dose response, biochemical, luminescence (AID 1891)
cells [2] = format: functional, cell-based
[3] = HepG2 cell cytotoxicity, dose response, cytotoxicity control, ATP luminescence, cherry-pick, activator set 2 (AID 1053143); format: functional, cell-based
[4] = biological target: Dual specificity tyrosine-phosphorylation-regulated kinase 1A (Rattus norvegicus, UniProt Q63470); format: biochemical, Homo sapiens
[5] = biological target: T1, Trace amine-associated receptor 1 (Homo sapiens, UniProt Q96RJ0); test: Fluorescence-based cell-based high throughput dose response assay to identify agonists of the human trace amine associated receptor 1 (TAAR1).; format: functional
T1 sequence (Q96RJ0 whole entry): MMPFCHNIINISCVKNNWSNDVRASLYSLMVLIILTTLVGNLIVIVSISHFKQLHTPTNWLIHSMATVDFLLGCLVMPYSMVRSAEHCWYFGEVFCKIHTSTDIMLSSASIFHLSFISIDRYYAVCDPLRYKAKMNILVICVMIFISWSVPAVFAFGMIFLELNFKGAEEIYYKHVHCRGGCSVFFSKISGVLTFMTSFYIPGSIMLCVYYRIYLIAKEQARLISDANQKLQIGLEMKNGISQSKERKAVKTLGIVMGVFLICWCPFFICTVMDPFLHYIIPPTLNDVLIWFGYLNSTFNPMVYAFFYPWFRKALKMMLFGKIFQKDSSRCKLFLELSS

[6] = Luminescence Cell-Based Dose Confirmation HTS to Identify Inhibitors of Platelet Dense Granule Release. [Related pubchem assays: 1663 (Primary HTS), 1678 (Summary of Project)]; format: functional
[7] = biological target: T1, Trace amine-associated receptor 1; test: Counterscreen for agonists of the human trace amine associated receptor 1 (hTAAR1): Fluorescence-based cell-based high throughput dose response assay to identify hTAAR1 agonist that also desensitize TAAR1 receptor response.; format: functional
cells [8] = format: functional, cell-based; remark: listed apart in the source
HeLa = test: HeLa cell cytotoxicity, dose response, cytotoxicity control, ATP luminescence, cherry-pick samples (AID 687004); format: functional, cell-based; conditions: Homo sapiens
[9] = HEK293 Cytotoxicity Assay Measured in Cell-Based System Using Plate Reader - 7071-01_Inhibitor_Dose_CherryPick_Activity_Set2.; format: functional
HEK293 = test: HEK293T cell cytotoxicity, dose response, cytotoxicity control, ATP luminescence, cherry-pick samples (AID 687005); format: functional, cell-based; conditions: Homo sapiens;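 note: cells exposed to compound for 48 hours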
[10] = Late stage assay provider results from the probe development effort to identify inhibitors of the Plasmodium falciparum M17 Leucine Aminopeptidase (M17LAP): radiolabel-based cell-based dose response assay to identify compounds that inhibit P. falciparum growth in RBCs Set 2.; format: functional
[11] = T. cruzi growth inhibition in host cells, dose response, cell-based, plate reader, dry powder, set 2 (AID 652275); format: functional
[12] = off-target signal loss in HeLa-CEM21 co-culture – HeLa F-luc CTL cells, cherry-picked, counter-screen for HIV-1 Env fusion inhibitor project, dose response (AID 652040); format: functional, cell-based;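 note: potency for signal decrease marking cytotoxic or nonspecific inhibition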
[13] = inhibitors of clade B AD8 Env fusion, dose response, cell-based, cherry-pick (AID 652062); format: functional;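 note: luciferase signal from cell-cell fusion driven by HIV-1 clade B AD8 Env; potency is for inhibitors of fusion seen as a drop in luminescence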
Jurkat = test: antigen receptor-induced NF-kB inhibitors, dose response, Jurkat, luciferase reporter, luminescence, B- and T-cell (AID 489004); format: functional, cell-based; conditions: Homo sapiens;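 note: NF-kB luciferase reporter Jurkat cells stimulated with PMA plus ionomycin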
Galanin receptor type 3 = Galanin receptor type 3 (Homo sapiens, UniProt O60755); test: Fluorescence-based cell-based primary high throughput dose response assay to identify antagonists of the Galanin Receptor 3 (GalR3).; format: functional
[14] = ZM109 Env clade C HIV-1 fusion inhibitors, dose response, HeLa effector, CEM target cells, luciferase, cherry-pick (AID 652058); format: functional, cell-based
cells [15] = format: functional, cell-based; conditions: HEK-CNG
[16] = cytotoxicity in HEK-293T NF-kB-Luc cells, dose response, cytotoxicity control for B/T-cell NF-kB inhibitor project, cell-based, uHTS hits (AID 489019); format: functional;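 note: IC50 reflects cytotoxicity as loss of cell viability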
[17] = inhibitors of HIV Env-driven cell fusion, dose response, cherry-pick (AID 652057); format: functional, cell-based
[18] = HepG2 cell cytotoxicity, dose response, cytotoxicity control, cherry-picks, set 5 (AID 1053118); format: functional, cell-based
[19] = cytotoxicity in COV434 cells, dose response, cytotoxicity control for PAX8 inhibitor project, cell-based, plate reader, dry powder, SA7 (AID 743145); format: functional
[20] = cytotoxicity in OVCAR4 cells, dose response, cytotoxicity control for PAX8 inhibitor project, cell-based, plate reader, dry powder, SA11 (AID 743150); format: functional; conditions: OVCAR-4
[21] = IGROV1 ovarian cancer cell cytotoxicity, dose response, PAX8 inhibitor project, plate reader, dry powder samples (AID 743043); format: functional, cell-based; conditions: IGROV-1
[22] = HEK293T cell cytotoxicity, dose response, cytotoxicity control for HIV Vif inhibitor project, cherry-picks (AID 652208); format: functional, cell-based
[23] = non-specific cell cytotoxicity, dose response, cytotoxicity control for PAX8 inhibitor project, plate reader, dry powder samples (AID 743021); format: functional, cell-based
[24] = cytotoxicity in COV362 ovarian cancer cells, dose response, cytotoxicity control for PAX8 inhibitor project, cell-based, plate reader, dry powder, SA12 (AID 743144); format: functional
cells [25] = format: functional, cell-based; remark: listed apart in the source
Paired box protein Pax-8 = Paired box protein Pax-8 (Homo sapiens, UniProt Q06710); test: inhibitors of PAX8-driven TPO luciferase reporter, dose response, RMG-I cells, cherry-pick (AID 687027); format: functional, cell-based;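 note: luciferase reporter driven by Pax8 target thyroperoxidase promoter measured by SteadyGlo luminescence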
[26] = cytotoxicity in OV-90 ovarian cancer cells, dose response, PAX8 inhibitor project, cell-based, plate reader, dry powder, SA8 (AID 743149); format: functional
[27] = NIH:OVCAR-3 ovarian cancer cell cytotoxicity, dose response, PAX8 inhibitor project, plate reader, dry powder samples (AID 743044); format: functional, cell-based
[28] = IOSE-T80 ovarian epithelial cell cytotoxicity, dose response, cytotoxicity control for PAX8 inhibitor project, plate reader, dry powder samples (AID 743045); format: functional, cell-based
[29] = cytotoxicity dependent on PAX8, dose response, cell-based, plate reader, dry powder (AID 743049); format: functional
cells [30] = format: functional, cell-based; remark: listed apart in the source
[31] = NIH/3T3 fibroblast cytotoxicity, dose response, cytotoxicity control, cell-based, plate reader, dry powder, set 2 (AID 652280); format: functional; conditions: NIH3T3
Kallikrein-7 = Kallikrein-7 (Homo sapiens, UniProt P49862); test: Fluorescence Intensity-based biochemical primary high throughput dose response assay to identify activators of kallikrein-7 (K7) zymogen.
[32] = EDANS-DABCYL fluorescence interference, concentration series, dose response, artefact control for kallikrein-7 zymogen activator project, biochemical, fluorescence intensity, triplicate (AID 720493)

Sequence of Galanin receptor type 3 (O60755 whole entry, the tested form may be a part): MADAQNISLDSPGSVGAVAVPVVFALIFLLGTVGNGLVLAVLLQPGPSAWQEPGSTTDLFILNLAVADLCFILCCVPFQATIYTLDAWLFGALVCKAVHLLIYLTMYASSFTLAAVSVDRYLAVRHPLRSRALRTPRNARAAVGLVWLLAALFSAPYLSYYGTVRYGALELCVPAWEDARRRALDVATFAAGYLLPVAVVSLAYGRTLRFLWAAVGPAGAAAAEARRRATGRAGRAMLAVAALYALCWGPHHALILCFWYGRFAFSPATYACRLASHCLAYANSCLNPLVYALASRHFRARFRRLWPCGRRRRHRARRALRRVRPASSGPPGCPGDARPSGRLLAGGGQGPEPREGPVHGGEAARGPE
Sequence of Paired box protein Pax-8 (Q06710 whole entry): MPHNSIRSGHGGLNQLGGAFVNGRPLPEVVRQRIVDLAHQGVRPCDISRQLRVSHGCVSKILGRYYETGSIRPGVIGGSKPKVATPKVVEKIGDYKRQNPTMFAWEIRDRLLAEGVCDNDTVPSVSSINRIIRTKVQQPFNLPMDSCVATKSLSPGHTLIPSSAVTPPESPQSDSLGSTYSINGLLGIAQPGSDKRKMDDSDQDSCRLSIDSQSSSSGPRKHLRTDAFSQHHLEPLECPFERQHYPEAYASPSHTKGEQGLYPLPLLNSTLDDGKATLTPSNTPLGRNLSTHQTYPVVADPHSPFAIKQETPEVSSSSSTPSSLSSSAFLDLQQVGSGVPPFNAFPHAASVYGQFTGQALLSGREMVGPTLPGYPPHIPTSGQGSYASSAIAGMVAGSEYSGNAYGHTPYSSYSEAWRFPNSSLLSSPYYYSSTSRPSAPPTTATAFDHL
Sequence of Kallikrein-7 (P49862 whole entry): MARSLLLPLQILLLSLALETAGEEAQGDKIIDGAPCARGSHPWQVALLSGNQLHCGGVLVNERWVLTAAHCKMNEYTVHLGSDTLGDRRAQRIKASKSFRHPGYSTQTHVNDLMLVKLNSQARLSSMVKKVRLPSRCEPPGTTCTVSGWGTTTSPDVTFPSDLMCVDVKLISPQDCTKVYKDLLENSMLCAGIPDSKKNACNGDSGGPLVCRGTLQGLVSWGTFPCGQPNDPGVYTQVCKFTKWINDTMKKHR
Sequence of Luciferin 4-monooxygenase (P08659 whole entry): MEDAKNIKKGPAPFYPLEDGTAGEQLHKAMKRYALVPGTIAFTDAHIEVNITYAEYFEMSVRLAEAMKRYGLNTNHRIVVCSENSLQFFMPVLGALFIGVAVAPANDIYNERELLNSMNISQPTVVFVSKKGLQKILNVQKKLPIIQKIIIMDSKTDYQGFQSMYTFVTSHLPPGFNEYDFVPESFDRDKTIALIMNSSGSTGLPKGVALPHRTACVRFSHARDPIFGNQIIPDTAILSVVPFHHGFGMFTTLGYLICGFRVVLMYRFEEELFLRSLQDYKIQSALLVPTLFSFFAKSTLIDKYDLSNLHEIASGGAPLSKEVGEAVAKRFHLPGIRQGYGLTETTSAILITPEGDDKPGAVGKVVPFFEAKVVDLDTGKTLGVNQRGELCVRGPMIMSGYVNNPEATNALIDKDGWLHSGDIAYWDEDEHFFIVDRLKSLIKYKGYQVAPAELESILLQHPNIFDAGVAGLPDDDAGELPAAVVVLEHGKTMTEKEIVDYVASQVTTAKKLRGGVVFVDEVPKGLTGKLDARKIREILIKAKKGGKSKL

SMILES: Nc1nc(Nc2ccccc2)nc2ccccc12
EC50 [1]: 1.25 µM (active) | IC50 (cells [2]): > 29.9 µM (inactive) | AC50 [3]: 26 µM (active) | AC50 [4]: 4.92 µM (active) | EC50 [5]: 160 nM (active) | EC50 [6]: 2.06 µM (active) | IC50 [7]: 444 nM (active) | EC50 (cells [8]): > 29.9 µM (inactive)

SMILES: COc1ccccc1C(=O)Nc1ccc2c(c1)C(=O)N(C)C[C@H](OC)[C@@H](C)CN(CC1CC1)[C@@H](C)CO2
AC50 (HeLa): > 52 µM (inactive) | AC50 [9]: 24.1 µM (active) | AC50 (HEK293): 24.1 µM (active)

SMILES: Cc1ccc(CC(=O)NO)cc1
IC50 [10]: 16.3 µM (inactive)

SMILES: CC(c1ccc(Cl)cc1)N(C)C[C@@H]1CN(C(C)C)C(=O)c2cccc(NC(=O)c3ccncc3)c2O1 (stereo partly drawn)
AC50 [11]: 54.8 nM (active)

SMILES: Cc1cc(CSc2ccccc2)ccc1NC(=O)c1ccc(CN2CCOCC2)cc1
AC50 [12]: 1.75 µM (active) | AC50 [13]: 5.87 µM (active) | IC50 (Jurkat): > 80 µM (inactive) | IC50 (Galanin receptor type 3): 322 nM (active) | AC50 [14]: 7.59 µM (active) | EC50 (cells [15]): > 29.9 µM (inactive) | IC50 [16]: > 80 µM (inactive) | AC50 [17]: 2.17 µM (active)

SMILES: N#C[C@H]1[C@@H](c2ccccc2C2=CCCCC2)[C@@H](CO)N1S(=O)(=O)c1ccccc1
AC50 [18]: > 47 µM (inactive)

SMILES: COc1ccc(-c2cc(C(F)(F)F)nc(S(=O)(=O)CCCC(=O)Nc3cc(C)on3)n2)cc1OC
AC50 [19]: 15.2 µM (active) | AC50 [20]: 27.7 µM (active) | AC50 [21]: 13.4 µM (active) | AC50 [22]: 13.7 µM (active) | AC50 [23]: 23.1 µM (active) | AC50 [24]: 21.2 µM (active) | EC50 (cells [25]): > 350 µM (not active) | AC50 (Paired box protein Pax-8): 9.94 µM (active) | AC50 [26]: 30.1 µM (active) | AC50 [27]: 20.7 µM (active) | AC50 [28]: 29.4 µM (active) | AC50 [29]: 16.2 µM (active) | EC50 (cells [30]): > 350 µM (not active)

SMILES: Cc1cccc(-c2ccc([C@H]3[C@H](CO)N4CCCCN(Cc5ccncc5)C[C@@H]34)cc2)c1
AC50 [31]: 8.54 µM (active)

EC50 (Kallikrein-7): > 69.5 µM (inactive)
SMILES: COc1ccc(-c2cc(-c3ccccc3)n3ncnc3n2)cc1
EC50 [32]: > 7.72 µM (active)

From ChEMBL document CHEMBL1201862, “PubChem BioAssay data set” (2004)
